As a reminder, the pIC50 is −log10 of the IC50, conventionally taken in molar units. A high value points to a low IC50.

Experimental findings from ChEMBL document CHEMBL2146411, “Discovery of 3H-imidazo[4,5-c]quinolin-4(5H)-ones as potent and selective dipeptidyl peptidase IV (DPP-4) inhibitors” (Bioorg Med Chem, 2012) are described below.

pIC50: −log10 of the molar value.

The target in this assay is Dipeptidyl peptidase 4 (Bos taurus, UniProt P81425).
Dipeptidyl peptidase 4, sequence (P81425 whole entry): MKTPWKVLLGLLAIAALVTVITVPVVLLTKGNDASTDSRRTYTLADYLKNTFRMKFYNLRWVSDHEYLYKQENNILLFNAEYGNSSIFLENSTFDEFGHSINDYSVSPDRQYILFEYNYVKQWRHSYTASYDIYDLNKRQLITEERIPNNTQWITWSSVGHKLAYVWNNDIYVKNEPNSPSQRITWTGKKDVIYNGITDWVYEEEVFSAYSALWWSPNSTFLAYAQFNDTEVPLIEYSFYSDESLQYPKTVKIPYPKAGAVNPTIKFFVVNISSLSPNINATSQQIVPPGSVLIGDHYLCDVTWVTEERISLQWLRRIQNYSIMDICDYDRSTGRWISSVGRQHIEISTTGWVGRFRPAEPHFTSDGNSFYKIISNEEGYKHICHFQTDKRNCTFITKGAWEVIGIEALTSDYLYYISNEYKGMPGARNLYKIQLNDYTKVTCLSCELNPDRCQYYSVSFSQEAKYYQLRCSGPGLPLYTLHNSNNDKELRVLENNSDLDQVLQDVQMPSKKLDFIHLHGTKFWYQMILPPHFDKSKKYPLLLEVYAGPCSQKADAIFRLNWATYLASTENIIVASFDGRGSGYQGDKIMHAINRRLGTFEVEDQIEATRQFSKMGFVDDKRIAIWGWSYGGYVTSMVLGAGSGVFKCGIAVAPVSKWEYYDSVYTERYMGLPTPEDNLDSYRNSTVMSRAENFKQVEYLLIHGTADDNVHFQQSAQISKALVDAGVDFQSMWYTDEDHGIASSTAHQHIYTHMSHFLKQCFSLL

Description: Inhibition of bovine DPP4 by HTS assay

`CC(C)=CCn1c(N2CCNCC2)nc2c1c(=O)[nH]c(=O)n2C` gave a negative-log IC50 (pIC50) of 6.17.
